Source: PMC11680018, “Study of Cytotoxicity of Spiro-Fused [3-Azabicyclo[3.1.0]hexane]oxindoles and Cyclopropa[a]pyrrolizidine-oxindoles Against Tumor Cell Lines” (Pharmaceuticals, 2024)
Read-outs that look alike come from different tables or passages of the source.

Experiments:
[1] = test system: human erythroleukemia (K562) cell line; test: MTS cell proliferation assay, K562; format: cell-based; settings: for IC50: Homo sapiens, MTS; for SI (selectivity index) K562: ratio of cytotoxicity PBMC / K562, calculated at 72 h
Method: (§1) Cancer cell lines are valuable in vitro model systems that are widely used in cancer research and drug discovery. Their use is mainly linked to their possibility to provide for experimental purposes an unlimited source of biological material. Here, the 24 and 72 h in vitro MTS assay was used to determine the antiproliferative activity of synthesized spiro-fused cyclopropa[a]pyrrolizidine-2,3′-oxindoles and [3-azabicyclo[3.1.0]hexane]-oxindoles against human erythroleukemia (K562), acute T cell leukemia (Jurkat), cervical carcinoma (HeLa), melanoma (Sk-mel-2), breast cancer adenocarcinoma (MCF-7) as well as mouse colon carcinoma (CT26) cell lines. […] The full results of these investigations are presented in the Supporting Information Figures S1–S6. […] An evaluation of the cytotoxicity of the selected compounds towards normal cells (peripheral blood mononuclear cells) was performed additionally to understand their respective relative selectivities. The selectivity index was obtained using the ratio of measured cytotoxicity between the PBMC cells and each of the cancer cell lines, and the results are presented in Table 3.
(§2) The human erythroleukemia (K-562), cervical carcinoma (HeLa) as well as mouse colon carcinoma (CT26) cell lines were obtained from the Bank of Cell Cultures of the Institute of Cytology of the Russian Academy of Sciences; the human melanoma (Sk-mel-2) cell line was obtained from the Bank of Cell Cultures of the Institute of Cytology and Genetics, Siberian Branch of the Russian Academy of Sciences. The acute T cell leukemia (Jurkat) cell line was obtained from the Bank of Cell Cultures of the Institute of Immunology of the Russian Academy of Medical Sciences. The peripheral blood mononuclear cells (PBMC) were isolated from the blood of healthy donors. K-562, Jurkat, MCF-7, PBMC and CT26 cells were grown on RPMI medium (Hyclone, GE Healthcare Life Sciences, Logan, UT, USA) supplemented with 10% (v/v) fetal bovine serum (Hyclone, GE Healthcare Life Sciences, Logan, UT, USA) and gentamicin (Sigma-Aldrich, St. Louis, MO, USA) at 37 °C in a humidified atmosphere with 5% CO2. HeLa and Sk-mel-2 cells were cultured with the same supplements and conditions in DMEM medium (Hyclone, GE Healthcare Life Sciences, Logan, UT, USA).
(§3) To evaluate the in vitro toxicity of the compounds synthesized, cells were seeded into 96-well plates at a density of 5 × 10^3 cells per well. On the next day, the tested compounds were added to the wells at concentrations ranging from 1 to 30 μg/mL, followed by incubation for 1 and 3 days. Cell proliferation was determined by adding 20 μL of MTS reagent (BioVision, Milpitas, CA, USA) stock solution per well. The plates were incubated for 2 h at 37 °C in a humidified, 5% CO2 atmosphere. The plates were then read at 495 nm using a plate spectrophotometer (Multiskan GO, Thermo Fisher Scientific, Waltham, MA, USA). All samples were measured in triplicate.

[2] = test system: cervical carcinoma (HeLa) cell line; test: MTS cell proliferation assay, HeLa; format: cell-based, human; settings: for IC50: Homo sapiens, HeLa, MTS; for SI (selectivity index) HeLa: ratio of cytotoxicity PBMC / HeLa, calculated at 72 h
Method: as §1, §2, §3

[3] = test system: acute T cell leukemia (Jurkat) cell line; test: MTS cell proliferation assay, Jurkat; format: cell-based, human; settings: for IC50: Homo sapiens, Jurkat, MTS; for SI (selectivity index) Jurkat: ratio of cytotoxicity PBMC / Jurkat, calculated at 72 h
Method: as §1, §2, §3

[4] = test system: breast cancer adenocarcinoma (MCF-7) cell line; test: MTS cell proliferation assay, MCF-7; format: cell-based, human; settings: for IC50: Homo sapiens, MTS; for SI (selectivity index) MCF-7: ratio of cytotoxicity PBMC / MCF-7, calculated at 72 h
Method: as §1, §2, §3

[5] = test system: melanoma (Sk-mel-2) cell line; test: MTS cell proliferation assay, Sk-mel-2; format: cell-based, human; settings: for IC50: Homo sapiens, MTS; for SI (selectivity index) Sk-mel-2: ratio of cytotoxicity PBMC / Sk-mel-2, calculated at 72 h
Method: as §1, §2, §3

[6] = test system: mouse colon carcinoma (CT26) cell line; test: MTS cell proliferation assay, CT26; format: cell-based; settings: for IC50: Mus musculus, MTS; for SI (selectivity index) CT26: ratio of cytotoxicity PBMC / CT26, calculated at 72 h
Method: as §1, §2, §3

[7] = test system: peripheral blood mononuclear cells (PBMC); test: MTS cytotoxicity towards normal cells, PBMC; format: cell-based; settings: Homo sapiens
Method: as §1, §2, §3

[8] = test system: HeLa cells actin cytoskeleton; test: Actin cytoskeleton staining, confocal microscopy, HeLa; format: cell-based, human; settings: 10 μg/mL, 24 h; for HeLa cells with filopodia-like deformations: control cells 93%, lowest value over the compounds; for HeLa cells with granular actin distributed diffusely in the cytoplasm (stress fibers disappeared): maximum over the compounds
Method: It was found using confocal microscopy that incubation with spiro-fused [3-azabicyclo[3.1.0]hexane]oxindoles 4, 8, 17, 18, 22, 24 and cyclopropa[a]pyrrolizidine-2,3′-oxindole 2 led to significant changes in the HeLa cells’ actin cytoskeleton structure leading to the disappearance of stress fibers (granular actin was distributed diffusely in the cytoplasm in up to 38% of treated cells) and changes in the number of filopodia-like deformations (reduced from 93% in control cells to 64% after treatment). The impact on the Sk-mel-2 cells’ actin cytoskeleton structure was even greater: granular actin was distributed diffusely in the cytoplasm in up to 90% of treated cells while the number of filopodia-like deformations was reduced by up to 23%. Such changes in the cytoskeleton may indicate a change in the motor activity of cells, which may indicate a decrease in the ability of tumor cells to metastasize.
HeLa cells were seeded at a density of 2 × 10^5 cells per dish onto a petri dish with cover slips and incubated for 24 h. After that, cells were treated with chosen compounds (10 μg/mL) for 24 h. The medium was removed and cells were fixed with 4% paraformaldehyde (Sigma-Aldrich, St. Louis, MO, USA), washed three times with PBS, and permeabilized with 0.3% Triton-X100 (Sigma-Aldrich, St. Louis, MO, USA). The cells were rinsed three times with PBS. Actin filaments (microfilaments) were stained with rhodamine–phalloidin (Invitrogen, Carlsbad, CA, USA) at 37 °C for 15 min. The samples were rinsed three times with PBS, followed by embedding in Fluoroshield medium (Sigma-Aldrich, St. Louis, MO, USA). Cells were imaged using an Axio Observer Z1 confocal microscope (Carl Zeiss MicroImaging GmbH, Jena, Germany). In each experiment, at least 30 cells were imaged. Images were analyzed by a pathologist blinded to the treatment mode used for each group using ImageJ software, 1.52v.

[9] = test system: K562, Jurkat, HeLa, Sk-mel-2, MCF-7 and CT26 cell lines; test: MTS cell proliferation assay, panel of cell lines (summary statements); format: cell-based; settings: 72 h; range over four cell lines and compounds; read-out: IC50 against the Jurkat, K-562, HeLa and Sk-mel-2 cell lines
Method: as §1, §2, §3

[10] = read-out: IC50 K562 24 h, K562, 24 h
[11] = K562, 72 h, read-out: IC50 K562 72 h
[12] = read-out: IC50 Jurkat 24 h, 24 h
[13] = 72 h, read-out: IC50 Jurkat 72 h
[14] = MCF7, read-out: IC50 MCF-7 24 h, MCF-7, 24 h
[15] = MCF7, MCF-7, 72 h, read-out: IC50 MCF-7 72 h
[16] = read-out: IC50 Sk-mel-2 24 h, Sk-mel-2, 24 h
[17] = Sk-mel-2, 72 h, read-out: IC50 Sk-mel-2 72 h
[18] = read-out: IC50 CT26 24 h, CT26, 24 h
[19] = CT26, 72 h, read-out: IC50 CT26 72 h

| SMILES | IC50 [1, 10] [µM] | IC50 [1, 11] [µM] | SI (selectivity index) K562 [1] | IC50 ([2]; read-out: IC50 HeLa 24 h, 24 h) [µM] | IC50 ([2]; 72 h, read-out: IC50 HeLa 72 h) [µM] | SI (selectivity index) HeLa [2] | IC50 [3, 12] [µM] | IC50 [3, 13] [µM] | SI (selectivity index) Jurkat [3] | IC50 [4, 14] [µM] | IC50 [4, 15] [µM] | SI (selectivity index) MCF-7 [4] | IC50 [5, 16] [µM] | IC50 [5, 17] [µM] | SI (selectivity index) Sk-mel-2 [5] | IC50 [6, 18] [µM] | IC50 [6, 19] [µM] | SI (selectivity index) CT26 [6] | IC50 ([7]; 72 h, read-out: IC50 PBMC 72 h) [µM] | IC50 ([7]; read-out: IC50 PBMC 24 h, 24 h) [µM] | other results |
| --- | --- | --- | --- | --- | --- | --- | --- | --- | --- | --- | --- | --- | --- | --- | --- | --- | --- | --- | --- | --- | --- |
| COC(=O)C1C2(c3ccccc3)C(Cc3ccc(O)cc3)NC3(C(=O)Nc4ccccc43)C12c1ccccc1 (stereo not shown) [Compound 17] | 35 ± 5 | 14 ± 1 | 8 | 31 ± 2 | 14 ± 2 | 8 | 12 ± 1 | 8 ± 1 | 15 | > 40 | > 40 | 2 | > 40 | 14 ± 2 | 8 | > 40 | 23 ± 2 | 5 | 112 ± 9 | 127 ± 16 | HeLa cells with filopodia-like deformations [8]: ≥ 64%; HeLa cells with granular actin distributed diffusely in the cytoplasm (stress fibers disappeared) [8]: up to 38% |
| CSCCC1NC2(C(=O)Nc3ccccc32)C2(c3ccccc3)C(c3ccccc3)C12c1ccccc1 (stereo not shown) [Compound 24] | > 40 | 10 ± 1 | 9 | 20 ± 2 | 8 ± 1 | 12 | 22 ± 2 | 4 ± 1 | 23 | > 40 | > 40 | 1 | > 40 | 8 ± 1 | 12 | > 40 | > 40 | 1 | 92 ± 11 | 113 ± 14 | HeLa cells with filopodia-like deformations [8]: ≥ 64%; HeLa cells with granular actin distributed diffusely in the cytoplasm (stress fibers disappeared) [8]: up to 38%; IC50 [9]: 2 to 10 µM |
| CC(C)C1NC2(C(=O)Nc3ccccc32)C2(c3ccccc3)C(c3ccccc3)C12c1ccccc1 (stereo not shown) [Compound 8] | 25 ± 1 | 6 ± 1 | 7 | > 40 | 8 ± 1 | 6 | 11 ± 1 | 2 ± 1 | 22 | > 40 | > 40 | 1 | 15 ± 1 | 8 ± 1 | 6 | > 40 | 11 ± 1 | 4 | 47 ± 5 | 83 ± 7 | HeLa cells with filopodia-like deformations [8]: ≥ 64%; HeLa cells with granular actin distributed diffusely in the cytoplasm (stress fibers disappeared) [8]: up to 38%; IC50 [9]: 2 to 10 µM |
| NC(=O)CC1NC2(C(=O)Nc3ccccc32)C2(c3ccccc3)C(c3ccccc3)C12c1ccccc1 (stereo not shown) [Compound 18] | 14 ± 2 | 6 ± 1 | 2 | 23 ± 2 | 10 ± 2 | 1 | 6 ± 1 | 2 ± 1 | 6 | > 40 | 14 ± 1 | 1 | 29 ± 2 | 10 ± 1 | 1 | 27 ± 2 | 10 ± 1 | 1 | 12 ± 1 | 29 ± 3 | HeLa cells with filopodia-like deformations [8]: ≥ 64%; HeLa cells with granular actin distributed diffusely in the cytoplasm (stress fibers disappeared) [8]: up to 38%; IC50 [9]: 2 to 10 µM |
